Counter-ions that a name gives are not always drawn.
Assays:
[1] = Particle size distribution (laser diffraction, Malvern instrument); type: physicochemical; details: Hydrochloride; for particle size distribution D10: 10 volume percent of particles smaller than value; for particle size distribution D50: 50 volume percent of particles smaller than value; for particle size distribution D90: 90 volume percent of particles smaller than value
Description: The D10, D50, and D90 values are useful ways for indicating particle size distributions. D90 refers to at least 90 volume percent of the particles having a size smaller than the given value. Likewise, D10 refers to 10 volume percent of the particles having a size smaller than the given value. D50 refers to 50 volume percent of the particles having a size smaller than the given value. Methods for determining D10, D50, and D90 include laser diffraction, such as using equipment from Malvern Instruments Ltd. of Malvern, Worcestershire, United Kingdom.

[2] = Specific surface area (BET); type: physicochemical; details: BET stated for Example 8; Hydrochloride
[3] = natural crystalline form, not micronized; cited from earlier work
[4] = natural crystalline form, not micronized; cited from earlier work; remark: listed apart in the source

Row | Structure (SMILES) | particle size distribution D10 [1] [μm] | particle size distribution D50 [1] [μm] | particle size distribution D90 [1] [μm] | Specific surface area [2] [m^2/g] | bioavailability [3] | dissolution rate [4]
1 | OC(CNCC(O)C1CCc2cc(F)ccc2O1)C1CCc2cc(F)ccc2O1 (stereo not shown) [Example 55, Nebivolol Hydrochloride] | 2.37 | 6.29 | 25.76 | – | – | –
2 | OC(CNCC(O)C1CCc2cc(F)ccc2O1)C1CCc2cc(F)ccc2O1 (stereo not shown) [Example 53, Nebivolol Hydrochloride] | 1.87 | 4.46 | 11.72 | – | – | –
3 | OC(CNCC(O)C1CCc2cc(F)ccc2O1)C1CCc2cc(F)ccc2O1 (stereo not shown) [Example 8, Nebivolol Hydrochloride] | 3.94 | 19.1 | 48.4 | 1.2580 | – | –
4 | OC(CNCC(O)C1CCc2cc(F)ccc2O1)C1CCc2cc(F)ccc2O1 (stereo not shown) [Example 60, Nebivolol Hydrochloride] | 1.43 | 3.52 | 9.35 | – | – | –
5 | OC(CNCC(O)C1CCc2cc(F)ccc2O1)C1CCc2cc(F)ccc2O1 (stereo not drawn) [nebivolol hydrochloride, (1RS,1′RS)-1,1′-[(2RS,2′SR)-bis(6-fluoro-3,4-dihydro-2H-1-benzopyran-2-yl)]-2,2′-iminodiethanol] | – | – | – | – | poor | poor

More lines, main results first:

Row | particle size distribution D10 [1] [μm] | particle size distribution D50 [1] [μm] | particle size distribution D90 [1] [μm] | Specific surface area [2] [m^2/g] | Structure (SMILES) | bioavailability [3] | dissolution rate [4]
6 | 1.314 | 3.363 | 7.80 | – | OC(CNCC(O)C1CCc2cc(F)ccc2O1)C1CCc2cc(F)ccc2O1 (stereo not shown) [Example 54, Nebivolol Hydrochloride] | – | –
7 | 1.753 | 4.571 | 15.180 | – | OC(CNCC(O)C1CCc2cc(F)ccc2O1)C1CCc2cc(F)ccc2O1 (stereo not shown) [Example 52, Nebivolol Hydrochloride] | – | –
8 | 1.23 | 3.17 | 10.75 | 3.68 | OC(CNCC(O)C1CCc2cc(F)ccc2O1)C1CCc2cc(F)ccc2O1 (stereo not shown) [Example 56, Nebivolol Hydrochloride] | – | –
